Literature values, collected in patent US7578964B2, “Powder injection molding composition and method of use” (priority 2001, dated 2009).

Legend:
[1] = solute solubility in water at 298.15 K; NIST Chemistry WebBook
[2] = for Octanol - Water Partition Coefficient log POW: Handbook of Environmental Data on Organic Compounds, 4th Edition

Row | SMILES | Henry's Law Constant k^0H [1] | Octanol - Water Partition Coefficient log POW [2] | log POW value ([2]; stated in text as known to those skilled in the art)
1 | ClCCl [Methylene Chloride] | 0.41 mol/Kg*bar | – | –
2 | CC(C)=O [Acetone] | 30 mol/Kg*bar | −0.24 | –
3 | CCOCC [Diethyl Ether] | 0.78-1.2 mol/Kg*bar | 0.77 | –
4 | ClC(Cl)(Cl)Cl [Carbon Tetrachloride] | 0.03 mol/Kg*bar | 2.64 | –
5 | C1COCCO1 [Dioxane] | – | −0.42 | –
6 | CCOC(C)=O [Ethyl Acetate] | 8.9 mol/Kg*bar | 0.66 | –
7 | CC(C)O [Isopropanol] | 130 mol/Kg*bar | – | –
8 | c1ccccc1 [Benzene] | 0.18 mol/Kg*bar | – | –
9 | CO [Methanol] | – | −0.82 | –
10 | O=C1CCCCCN1 [caprolactam, ε-caprolactam] | – | – | about 0.12
11 | CCCCCC [Hexane] | 0.001 mol/Kg*bar | 4 | –
12 | ClC=C(Cl)Cl [Trichloroethylene] | 0.11 mol/Kg*bar | 2.42 | –
13 | Cc1ccccc1 [Toluene] | 0.15 mol/Kg*bar | – | –
14 | CCC(C)=O [MEK] | – | 0.28 | –
15 | C1CCOC1 [THF] | – | 0.45 | –
16 | CCO [Ethanol] | 200 mol/Kg*bar | – | –
